This is an account of results in ChEMBL document CHEMBL1141696 (Bioorg Med Chem Lett, 2008).

Test [1] in a line: Binding affinity to delta opioid receptor in guinea pig forebrain. Also noted: species or system Cavia porcellus.
Another test concerns Mus musculus. Kind of test: Antinociceptive activity in sc dosed mouse assessed as attenuation of acetic acid-induced writhing per 10 mins. The format is functional. (In general: In writhing tests, fewer writhes than in controls are read as antinociception.)

pKi: −log10 of the molar value.

For orientation: pKi means the Ki on a negative log10 scale, so that one unit is a factor of ten. A low value points to a large Ki. The term ED50 denotes the dose at which the effect has come halfway, by size or by number of responders.

Turning to `CC(C)CN1CC[C@]23c4c5ccc(O)c4O[C@H]2C(=O)CC[C@@]3(O)[C@H]1C5`, the pKi in test [1] was 6.64. For the same molecule, in the test on Mus musculus, the Activity result is “Dose-dependent effect” and the ED50 was 5.05 mg/kg.

As for `O=C1CC[C@@]2(O)[C@H]3Cc4ccc(O)c5c4[C@@]2(CCN3CC2CC2)[C@H]1O5` [NALTREXONE], the pKi in test [1] is 7.68.
